Reference: ChEMBL document CHEMBL5042507, “One-Pot Procedure for the Synthesis of Asymmetric Substituted Ureido Benzene Sulfonamides as Effective Inhibitors of Carbonic Anhydrase Enzymes” (J Med Chem, 2022)
Calls of active or inactive are those of the source. No cut-off for these calls is given here.

Experiments:
[1] = target: Carbonic anhydrase 9 (Homo sapiens, UniProt Q16790)
Description: Inhibition of human CA9 preincubated for 15 mins by phenol red dye based stopped flow CO2 hydration assay

[2] = target: Carbonic anhydrase 1 (Homo sapiens, UniProt P00915)
Description: Inhibition of human CA1 preincubated for 15 mins by phenol red dye based stopped flow CO2 hydration assay

[3] = target: Carbonic anhydrase 12 (Homo sapiens, UniProt O43570)
Description: Inhibition of human CA12 preincubated for 15 mins by phenol red dye based stopped flow CO2 hydration assay

[4] = test system: Oryctolagus cuniculus; test: Antiglaucoma activity in New Zealand albino rabbit assessed as reduction in carbomer-induced intraocular pressure administered topically as eye drops measured at 60 to 120 mins post administration by pneumotonometer-analysis; type: functional; settings: time 60-120 min
[5] = test system: Oryctolagus cuniculus; test: Antiglaucoma activity in New Zealand albino rabbit assessed as reduction in intraocular pressure administered topically as eye drops measured after 4 hrs by pneumotonometer-analysis; type: functional
[6] = test system: Oryctolagus cuniculus; test: Antiglaucoma activity in New Zealand albino rabbit assessed as reduction in carbomer-induced intraocular pressure administered topically as eye drops measured at 60 mins post-drug administration by pneumotonometer-analysis; type: functional; settings: 1 h
[7] = test system: Oryctolagus cuniculus; test: Antiglaucoma activity in New Zealand albino rabbit assessed as reduction in carbomer-induced intraocular pressure administered topically as eye drops measured at 240 mins post-drug administration by pneumotonometer-analysis; type: functional; settings: 4 h

Sequence of Carbonic anhydrase 12 (O43570 whole entry): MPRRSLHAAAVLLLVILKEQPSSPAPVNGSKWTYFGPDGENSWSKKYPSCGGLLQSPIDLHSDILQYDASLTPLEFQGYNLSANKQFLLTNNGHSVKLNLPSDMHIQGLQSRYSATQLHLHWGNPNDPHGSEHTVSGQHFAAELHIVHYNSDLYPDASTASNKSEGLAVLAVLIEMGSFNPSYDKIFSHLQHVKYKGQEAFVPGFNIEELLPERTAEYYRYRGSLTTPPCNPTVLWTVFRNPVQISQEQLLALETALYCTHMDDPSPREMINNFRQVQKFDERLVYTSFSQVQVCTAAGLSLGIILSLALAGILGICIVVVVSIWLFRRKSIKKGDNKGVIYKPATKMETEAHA
Sequence of Carbonic anhydrase 1 (P00915 whole entry): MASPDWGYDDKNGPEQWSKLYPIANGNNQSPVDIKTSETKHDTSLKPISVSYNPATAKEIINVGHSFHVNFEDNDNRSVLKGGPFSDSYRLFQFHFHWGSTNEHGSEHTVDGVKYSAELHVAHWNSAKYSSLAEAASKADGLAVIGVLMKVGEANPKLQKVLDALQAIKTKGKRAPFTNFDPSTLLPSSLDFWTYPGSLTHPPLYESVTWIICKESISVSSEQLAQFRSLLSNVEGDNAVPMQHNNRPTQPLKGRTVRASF

| Compound | Ki [1] [nM] | Ki [2] [nM] | Ki [3] [nM] | Activity [4] | Activity [5] | Activity [6] [mmHg] | Activity [7] [mmHg] |
| --- | --- | --- | --- | --- | --- | --- | --- |
| CCCN(CCC)C(=O)Nc1cccc(S(N)(=O)=O)c1 | 2190 |  |  |  |  |  |  |
| COC(=O)C(CC(C)C)NC(=O)Nc1cccc(S(N)(=O)=O)c1 (stereo not given) | 839 | 5280 | 589 |  |  |  |  |
| CN(Cc1ccccc1)C(=O)Nc1cccc(S(N)(=O)=O)c1 | 1440 |  |  | 11 mmHg | Active |  |  |
| COC(=O)C(Cc1ccccc1)NC(=O)Nc1cccc(S(N)(=O)=O)c1 (stereo not given) | 943 | 809 | 275 | 16 mmHg | Active |  |  |
| CC(C)NC(=O)Nc1ccc(S(N)(=O)=O)cc1 | 640 | 438 | 593 |  |  |  |  |
| CCN[C@H]1C[C@H](C)S(=O)(=O)c2sc(S(N)(=O)=O)cc21 [DORZOLAMIDE] |  |  |  |  | 24 mmHg |  |  |
| NS(=O)(=O)c1ccc(NC(=O)NCC(=O)NCC(=O)O)cc1 | 1570 | 7570 | 426 | Active | Active |  | 19 |
| NS(=O)(=O)c1cccc(NC(=O)Nc2ccccc2)c1 | 1800 | 449 | 356 |  |  |  |  |
| COC(=O)C(CCSC)NC(=O)Nc1cccc(S(N)(=O)=O)c1 (stereo not given) | 1380 | 1730 | 426 |  |  |  |  |
| NS(=O)(=O)c1cccc(NC(=O)Nc2cccc(C(F)(F)F)c2)c1 | 1600 | 2060 | 490 |  |  |  |  |
| COC(=O)CNC(=O)CNC(=O)Nc1cccc(S(N)(=O)=O)c1 | 691 | 7190 | 344 |  |  |  |  |
| NS(=O)(=O)c1cccc(NC(=O)NCCc2ccccc2)c1 | 1330 | 296 | 487 |  |  |  |  |
| CCN(CC)C(=O)Nc1cccc(S(N)(=O)=O)c1 | 1730 | 2880 | 375 |  |  |  |  |
| COC(=O)CNC(=O)Nc1cccc(S(N)(=O)=O)c1 | 825 | 6070 |  |  |  |  |  |
| COC(=O)C(CC(C)C)NC(=O)Nc1ccc(S(N)(=O)=O)cc1 (stereo not given) | 937 | 226 | 586 |  |  |  |  |
| CCCCCCN(CCCCCC)C(=O)Nc1cccc(S(N)(=O)=O)c1 | 2110 |  |  |  |  |  |  |

Continued, in another order:

| Ki [1] [nM] | Ki [2] [nM] | Ki [3] [nM] | Compound | Activity [4] | Activity [5] | Activity [6] [mmHg] | Activity [7] [mmHg] |
| --- | --- | --- | --- | --- | --- | --- | --- |
| 1790 |  |  | CC(C)CN(CC(C)C)C(=O)Nc1cccc(S(N)(=O)=O)c1 |  |  |  |  |
| 2090 |  |  | CC(C)N(C(=O)Nc1cccc(S(N)(=O)=O)c1)C(C)C |  |  |  |  |
| 746 | 8280 | 494 | COC(=O)CCCNC(=O)Nc1cccc(S(N)(=O)=O)c1 |  |  |  |  |
| 126 | 62.3 | 42.6 | COC(=O)[C@H](Cc1ccccc1)NC(=O)Nc1ccc(S(N)(=O)=O)cc1 |  | 27 mmHg | 36 |  |
| 860 | 8380 |  | COC(=O)CC(NC(=O)Nc1cccc(S(N)(=O)=O)c1)C(=O)OC (stereo not given) |  |  |  |  |
| 1920 |  |  | COC(=O)CNC(=O)Nc1ccc(S(N)(=O)=O)cc1 |  |  |  |  |
| 2120 | 69.9 | 600 | CCC(C)NC(=O)Nc1cccc(S(N)(=O)=O)c1 (stereo not given) |  |  |  |  |
| 1180 |  |  | CN(CCc1ccccc1)C(=O)Nc1cccc(S(N)(=O)=O)c1 |  |  |  |  |
| 1400 | 483 | 705 | CN(C)C(=O)Nc1ccc(S(N)(=O)=O)cc1 |  |  |  |  |
| 541 | 178 | 278 | NS(=O)(=O)c1cccc(NC(=O)N2CCCCC2)c1 |  |  |  |  |
| 596 | 62 | 726 | COC(=O)CCC(NC(=O)Nc1ccc(S(N)(=O)=O)cc1)C(=O)OC (stereo not given) |  |  |  |  |
| 2170 |  | 612 | CC(C)NC(=O)Nc1cccc(S(N)(=O)=O)c1 |  |  |  |  |
| 1480 | 737 | 512 | NS(=O)(=O)c1cccc(NC(=O)Nc2ccccc2F)c1 |  |  |  |  |
| 507 | 669 | 637 | CCC(C)NC(=O)Nc1ccc(S(N)(=O)=O)cc1 (stereo not given) |  |  |  |  |
